Reference: PubChem BioAssay AID1963868 (Molecular Pharmacology Branch, DTP, NCI, 2024)

Tested on: KRAS PDC tumor spheroids (HUVEC+MSC), viability
Experiment: Anticancer human tumor 254851-301-R-J1-PDC patient-derived colon carcinoma cell line growth inhibition [KRAS2]
Conditions: for IC50: curve of first compound; for viability, T/C: stronger effect = lower value
Outline: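 KRAS-mutant tumor cells were grown as spheroids with HUVEC endothelial cells and human MSCs as stroma. Targeted agents were tested alone and with KRAS pathway inhibitors. Doses started at or near clinical Cmax, or 10 microM, descending half-log.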

[1] = second compound 0.1 µM, first compound 0.0316 µM
[2] = second compound 0.1 µM, first compound 0.1 µM
[3] = second compound 0.1 µM, first compound 0.316 µM
[4] = second compound 0.1 µM, first compound 1 µM
[5] = second compound 0.316 µM, first compound 0.0316 µM
[6] = second compound 0.316 µM, first compound 0.1 µM
[7] = second compound 0.316 µM, first compound 0.316 µM
[8] = second compound 0.316 µM, first compound 1 µM
[9] = second compound 1 µM, first compound 0.0316 µM
[10] = second compound 1 µM, first compound 0.1 µM
[11] = second compound 1 µM, first compound 0.316 µM
[12] = second compound 1 µM, first compound 1 µM
[13] = second compound 3.16 µM, first compound 0.0316 µM
[14] = second compound 3.16 µM, first compound 0.1 µM
[15] = second compound 3.16 µM, first compound 0.316 µM
[16] = second compound 3.16 µM, first compound 1 µM
[17] = second compound 10 µM, first compound 0.0316 µM
[18] = second compound 10 µM, first compound 0.1 µM
[19] = second compound 10 µM, first compound 0.316 µM
[20] = second compound 10 µM, first compound 1 µM
[21] = second compound 0.1 µM, first compound 0.00316 µM
[22] = second compound 0.1 µM, first compound 0.01 µM
[23] = second compound 0.316 µM, first compound 0.00316 µM
[24] = second compound 0.316 µM, first compound 0.01 µM
[25] = second compound 1 µM, first compound 0.00316 µM
[26] = second compound 1 µM, first compound 0.01 µM
[27] = second compound 3.16 µM, first compound 0.00316 µM
[28] = second compound 3.16 µM, first compound 0.01 µM
[29] = second compound 10 µM, first compound 0.00316 µM
[30] = second compound 10 µM, first compound 0.01 µM
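Further: spheroids exposed to compounds for seven days before readout.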
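Wherever viability, T/C is given: 100% = DMSO vehicle control luminescence of the spheroids.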

SMILES	IC50 (second compound 0.1 µM) [nM]	IC50 (second compound 0.316 µM) [nM]	IC50 (second compound 1 µM) [nM]	IC50 (second compound 3.16 µM) [nM]	IC50 (second compound 10 µM) [nM]	viability, T/C [1] [%]	viability, T/C [2] [%]	viability, T/C [3] [%]	viability, T/C [4] [%]	viability, T/C [5] [%]	viability, T/C [6] [%]	viability, T/C [7] [%]	viability, T/C [8] [%]	viability, T/C [9] [%]	viability, T/C [10] [%]	viability, T/C [11] [%]	viability, T/C [13] [%]	viability, T/C [14] [%]	viability, T/C [17] [%]	viability, T/C [18] [%]	other results
CC(C)NCC(C(=O)N1CCN(c2ncnc3c2C(C)CC3O)CC1)c1ccc(Cl)cc1 (stereo not given) + CC1OCC2(CCN(c3cnc(Sc4ccnc(N)c4Cl)c(N)n3)CC2)C1N	> 10000	> 10000	> 10000	> 10000	> 10000	104	97.1	103	93.2	93	86.6	75.4	79.6	72.4	72.4	83.1	58.4	68.9	58.6	64.5	viability, T/C (second compound 0.1 µM, first compound 3.16 µM): 102%; viability, T/C (second compound 0.1 µM, first compound 10 µM): 85.3%; viability, T/C (second compound 0.316 µM, first compound 3.16 µM): 79.5%; viability, T/C (second compound 0.316 µM, first compound 10 µM): 88.4%; viability, T/C [12]: 75.6%; viability, T/C (second compound 1 µM, first compound 3.16 µM): 69.6%; viability, T/C (second compound 1 µM, first compound 10 µM): 68.5%; viability, T/C [15]: 64.9%; viability, T/C [16]: 66.4%; viability, T/C (second compound 3.16 µM, first compound 3.16 µM): 67.4%; viability, T/C (second compound 3.16 µM, first compound 10 µM): 70.8%; viability, T/C [19]: 65.7%; viability, T/C [20]: 60.9%; viability, T/C (second compound 10 µM, first compound 3.16 µM): 55.9%; viability, T/C (second compound 10 µM, first compound 10 µM): 58.4%
CCN1CCN(Cc2ccc(Nc3ncc(F)c(-c4cc(F)c5nc(C)n(C(C)C)c5c4)n3)nc2)CC1 + CC1OCC2(CCN(c3cnc(Sc4ccnc(N)c4Cl)c(N)n3)CC2)C1N	526	483	336	48.2	100	99.2	92.4	61.7	35.3	87.5	75.5	62.6	30.6	81.2	69.2	52.5	56.6	44	54.8	51.3	viability, T/C [21]: 94.5%; viability, T/C [22]: 92.5%; viability, T/C [23]: 93.9%; viability, T/C [24]: 91.2%; viability, T/C [25]: 82.7%; viability, T/C [26]: 94.3%; viability, T/C [12]: 28.8%; viability, T/C [27]: 54.2%; viability, T/C [28]: 49.7%; viability, T/C [15]: 28.6%; viability, T/C [16]: 26.8%; viability, T/C [29]: 62.5%; viability, T/C [30]: 65.8%; viability, T/C [19]: 35.5%; viability, T/C [20]: 13.5%
Cn1ncnc1[C@H]1c2n[nH]c(=O)c3cc(F)cc(c23)N[C@@H]1c1ccc(F)cc1 + CC1OCC2(CCN(c3cnc(Sc4ccnc(N)c4Cl)c(N)n3)CC2)C1N	> 100	> 100	> 100	> 100	> 100	101	98.9			78.3	90.6			83.9	80.9		76.9	74.1	67.1	57.2	viability, T/C (second compound 0.1 µM, first compound 0.000316 µM): 98%; viability, T/C (second compound 0.1 µM, first compound 0.001 µM): 102%; viability, T/C [21]: 100%; viability, T/C [22]: 98%; viability, T/C (second compound 0.316 µM, first compound 0.000316 µM): 89.5%; viability, T/C (second compound 0.316 µM, first compound 0.001 µM): 93.8%; viability, T/C [23]: 79%; viability, T/C [24]: 78.8%; viability, T/C (second compound 1 µM, first compound 0.000316 µM): 82.4%; viability, T/C (second compound 1 µM, first compound 0.001 µM): 85.2%; viability, T/C [25]: 75.1%; viability, T/C [26]: 83.6%; viability, T/C (second compound 3.16 µM, first compound 0.000316 µM): 75.1%; viability, T/C (second compound 3.16 µM, first compound 0.001 µM): 77.4%; viability, T/C [27]: 70.5%; viability, T/C [28]: 74.5%; viability, T/C (second compound 10 µM, first compound 0.000316 µM): 68.5%; viability, T/C (second compound 10 µM, first compound 0.001 µM): 67.7%; viability, T/C [29]: 63.7%; viability, T/C [30]: 57.1%
